Experimental data: patent publication US10913744B2, “LRRK2 inhibitors and methods of making and using the same” (Dana-Farber Cancer Institute, Inc., priority 2015, dated 2021)
Where two headings read alike, the source gives them in different places.

What was measured:
[1] = target: PRAK (Homo sapiens (Human), UniProt Q8IW41); assay: Dundee profiling
[2] = target: TYK2 (JH1domain-catalytic) (Homo sapiens (Human), UniProt P29597); assay: KinomeScan; format: binding; conditions: 1 uM
[3] = target: RSK1 (Homo sapiens (Human), UniProt Q15418); assay: Dundee profiling
RSK1, sequence (Q15418 whole entry, species assumed): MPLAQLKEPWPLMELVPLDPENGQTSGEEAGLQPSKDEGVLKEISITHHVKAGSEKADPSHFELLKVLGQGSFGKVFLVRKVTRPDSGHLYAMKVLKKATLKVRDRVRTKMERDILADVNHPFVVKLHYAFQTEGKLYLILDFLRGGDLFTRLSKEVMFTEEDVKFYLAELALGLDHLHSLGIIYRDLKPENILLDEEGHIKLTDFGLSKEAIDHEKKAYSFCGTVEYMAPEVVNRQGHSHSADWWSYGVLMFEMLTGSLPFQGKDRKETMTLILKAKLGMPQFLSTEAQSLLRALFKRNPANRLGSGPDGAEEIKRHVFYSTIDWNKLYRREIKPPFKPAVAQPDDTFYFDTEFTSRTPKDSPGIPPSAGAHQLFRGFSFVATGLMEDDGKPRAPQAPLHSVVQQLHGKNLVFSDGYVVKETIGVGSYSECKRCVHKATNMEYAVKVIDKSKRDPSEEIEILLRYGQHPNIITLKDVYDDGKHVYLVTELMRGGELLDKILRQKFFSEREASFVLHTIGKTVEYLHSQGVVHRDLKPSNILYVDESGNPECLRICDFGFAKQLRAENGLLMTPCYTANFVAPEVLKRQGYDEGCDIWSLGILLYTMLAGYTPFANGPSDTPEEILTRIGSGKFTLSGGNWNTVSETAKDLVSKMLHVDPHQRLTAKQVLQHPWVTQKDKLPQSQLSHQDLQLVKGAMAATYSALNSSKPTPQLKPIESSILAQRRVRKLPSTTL

[4] = target: SmMLCK (Homo sapiens (Human), UniProt Q15746); assay: Dundee profiling
[5] = target: BRSK2 (Homo sapiens (Human), UniProt Q8IWQ3); assay: Dundee profiling
[6] = target: MSK1 (Homo sapiens (Human), UniProt O75582); assay: Dundee profiling
MSK1, sequence (O75582 whole entry, species assumed): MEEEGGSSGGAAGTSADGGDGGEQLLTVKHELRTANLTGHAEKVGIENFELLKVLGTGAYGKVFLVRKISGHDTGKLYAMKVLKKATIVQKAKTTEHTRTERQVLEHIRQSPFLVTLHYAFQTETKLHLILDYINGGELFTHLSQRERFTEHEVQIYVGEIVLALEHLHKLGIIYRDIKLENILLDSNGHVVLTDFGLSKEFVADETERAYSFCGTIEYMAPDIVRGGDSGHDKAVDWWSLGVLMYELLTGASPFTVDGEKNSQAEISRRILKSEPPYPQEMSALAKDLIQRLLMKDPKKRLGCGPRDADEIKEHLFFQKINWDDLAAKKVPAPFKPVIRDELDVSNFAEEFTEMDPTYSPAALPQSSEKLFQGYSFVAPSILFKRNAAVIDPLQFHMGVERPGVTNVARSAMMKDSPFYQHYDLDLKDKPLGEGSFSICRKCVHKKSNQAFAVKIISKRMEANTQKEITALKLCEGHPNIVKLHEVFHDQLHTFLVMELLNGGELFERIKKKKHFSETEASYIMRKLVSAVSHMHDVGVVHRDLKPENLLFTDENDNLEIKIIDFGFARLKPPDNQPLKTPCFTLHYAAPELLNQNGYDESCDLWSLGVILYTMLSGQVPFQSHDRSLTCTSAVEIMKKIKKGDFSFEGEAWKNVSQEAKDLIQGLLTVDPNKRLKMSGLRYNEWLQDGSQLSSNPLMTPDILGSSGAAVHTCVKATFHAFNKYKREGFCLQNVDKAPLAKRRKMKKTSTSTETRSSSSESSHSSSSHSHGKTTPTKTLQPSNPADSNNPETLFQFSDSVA

[7] = target: PRKR (Homo sapiens (Human), UniProt P19525); assay: KinomeScan; format: binding; conditions: 1 uM
[8] = target: PFTK1 (Homo sapiens (Human), UniProt O94921); assay: KinomeScan; format: binding; conditions: 1 uM
[9] = target: ULK2 (Homo sapiens (Human), UniProt Q8IYT8); assay: Dundee profiling
ULK2, sequence (Q8IYT8 whole entry, looked up, species assumed): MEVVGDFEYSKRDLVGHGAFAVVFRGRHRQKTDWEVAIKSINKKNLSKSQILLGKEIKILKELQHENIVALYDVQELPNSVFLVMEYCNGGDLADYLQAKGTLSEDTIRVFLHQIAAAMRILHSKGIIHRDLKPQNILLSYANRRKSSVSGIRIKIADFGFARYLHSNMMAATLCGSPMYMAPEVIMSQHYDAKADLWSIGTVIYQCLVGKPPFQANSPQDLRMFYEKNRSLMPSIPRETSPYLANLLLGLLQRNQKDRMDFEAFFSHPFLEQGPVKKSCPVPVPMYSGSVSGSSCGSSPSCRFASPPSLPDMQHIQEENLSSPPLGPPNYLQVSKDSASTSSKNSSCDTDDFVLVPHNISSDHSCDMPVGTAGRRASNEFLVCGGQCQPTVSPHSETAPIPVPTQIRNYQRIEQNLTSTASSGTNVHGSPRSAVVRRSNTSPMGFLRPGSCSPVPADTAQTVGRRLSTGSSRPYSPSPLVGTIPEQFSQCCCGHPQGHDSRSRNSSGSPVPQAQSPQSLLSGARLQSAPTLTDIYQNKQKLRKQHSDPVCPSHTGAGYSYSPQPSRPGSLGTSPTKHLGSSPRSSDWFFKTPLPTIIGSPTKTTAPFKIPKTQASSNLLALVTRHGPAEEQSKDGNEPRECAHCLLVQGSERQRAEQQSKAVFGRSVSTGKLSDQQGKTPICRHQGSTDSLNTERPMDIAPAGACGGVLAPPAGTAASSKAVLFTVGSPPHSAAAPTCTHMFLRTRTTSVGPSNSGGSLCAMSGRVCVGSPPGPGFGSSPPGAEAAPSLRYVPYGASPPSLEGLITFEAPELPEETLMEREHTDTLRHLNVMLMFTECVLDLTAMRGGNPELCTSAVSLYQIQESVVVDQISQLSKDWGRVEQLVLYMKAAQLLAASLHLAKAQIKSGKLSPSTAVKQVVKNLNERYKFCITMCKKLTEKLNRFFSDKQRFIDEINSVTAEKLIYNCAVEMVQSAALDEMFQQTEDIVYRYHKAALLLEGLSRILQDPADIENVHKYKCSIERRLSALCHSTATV

[10] = target: EPHA5 (Homo sapiens (Human), UniProt P54756); assay: KinomeScan; format: binding; conditions: 1 uM
[11] = target: DDR2 (Homo sapiens (Human), UniProt Q16832); assay: Dundee profiling
[12] = target: JNK1 (Homo sapiens (Human), UniProt P45983); assay: Dundee profiling
[13] = target: PIM2 (Homo sapiens (Human), UniProt Q9P1W9); assay: Dundee profiling
[14] = target: EGFR (Homo sapiens (Human), UniProt P00533); assay: KinomeScan; format: binding; conditions: 1 uM
[15] = target: PKBa (Homo sapiens (Human), UniProt P31749); assay: Dundee profiling
[16] = target: NEK2a (Homo sapiens (Human), UniProt P51955); assay: Dundee profiling
[17] = target: MAPKAP-K2 (Homo sapiens (Human), UniProt P49137); assay: Dundee profiling
[18] = target: EPH-A2 (Homo sapiens (Human), UniProt P29317); assay: Dundee profiling
EPH-A2, sequence (P29317 24-976, species assumed): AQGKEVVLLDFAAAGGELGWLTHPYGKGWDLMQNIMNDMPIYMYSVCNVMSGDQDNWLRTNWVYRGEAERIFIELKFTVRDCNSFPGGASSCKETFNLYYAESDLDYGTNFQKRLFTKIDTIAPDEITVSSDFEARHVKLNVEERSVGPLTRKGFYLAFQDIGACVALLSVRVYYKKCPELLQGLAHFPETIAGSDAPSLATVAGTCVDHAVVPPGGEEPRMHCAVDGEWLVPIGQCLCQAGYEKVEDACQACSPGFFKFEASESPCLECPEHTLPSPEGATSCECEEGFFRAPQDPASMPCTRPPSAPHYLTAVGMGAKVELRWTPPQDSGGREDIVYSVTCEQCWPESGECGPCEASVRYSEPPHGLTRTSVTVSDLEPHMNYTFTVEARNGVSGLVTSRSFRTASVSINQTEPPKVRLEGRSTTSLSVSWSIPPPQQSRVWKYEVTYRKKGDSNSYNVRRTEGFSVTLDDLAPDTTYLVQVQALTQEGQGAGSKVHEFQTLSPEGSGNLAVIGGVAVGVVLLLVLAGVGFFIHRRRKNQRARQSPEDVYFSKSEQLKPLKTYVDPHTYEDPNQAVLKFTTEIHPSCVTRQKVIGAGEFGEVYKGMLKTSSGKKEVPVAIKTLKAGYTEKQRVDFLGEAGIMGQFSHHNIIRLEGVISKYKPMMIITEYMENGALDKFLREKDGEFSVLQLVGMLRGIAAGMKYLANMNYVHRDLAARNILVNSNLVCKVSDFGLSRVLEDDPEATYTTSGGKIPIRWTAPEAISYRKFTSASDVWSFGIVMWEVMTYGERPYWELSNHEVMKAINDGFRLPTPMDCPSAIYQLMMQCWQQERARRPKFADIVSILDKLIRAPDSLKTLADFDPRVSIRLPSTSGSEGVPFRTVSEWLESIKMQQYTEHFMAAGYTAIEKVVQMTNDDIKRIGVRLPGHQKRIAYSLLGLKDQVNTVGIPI

[19] = target: MKK1 (Homo sapiens (Human), UniProt Q02750); assay: Dundee profiling
MKK1, sequence (Q02750 whole entry, species assumed): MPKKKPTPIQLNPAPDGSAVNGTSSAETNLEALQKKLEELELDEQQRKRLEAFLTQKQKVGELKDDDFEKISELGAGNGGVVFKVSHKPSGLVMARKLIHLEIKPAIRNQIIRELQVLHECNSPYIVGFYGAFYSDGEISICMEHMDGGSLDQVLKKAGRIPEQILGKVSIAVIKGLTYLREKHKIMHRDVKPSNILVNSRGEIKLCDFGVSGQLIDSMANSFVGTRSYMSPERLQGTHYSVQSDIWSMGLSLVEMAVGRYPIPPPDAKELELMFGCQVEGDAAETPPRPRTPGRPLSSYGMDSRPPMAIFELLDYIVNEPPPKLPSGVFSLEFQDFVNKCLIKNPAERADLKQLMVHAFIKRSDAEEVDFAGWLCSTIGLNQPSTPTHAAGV

[20] = target: ERK1 (Homo sapiens (Human), UniProt P27361); assay: Dundee profiling
[21] = tested on: AMPK; assay: Dundee profiling
[22] = target: TTK (Homo sapiens (Human), UniProt P33981); assay: Dundee profiling
[23] = target: LOK (Homo sapiens (Human), UniProt O94804); assay: KinomeScan; format: binding; conditions: 1 uM
[24] = Pharmacokinetic study in mice; format: in vivo, mouse; conditions: for C0: back extrapolated conc.; for Vd: read-out: Vss
[25] = target: MINK1 (Homo sapiens (Human), UniProt Q8N4C8); assay: Dundee profiling
[26] = target: PKCa (Homo sapiens (Human), UniProt P17252); assay: Dundee profiling
[27] = target: CSK (Homo sapiens (Human), UniProt P41240); assay: KinomeScan; format: binding; conditions: 1 uM
[28] = target: DYRK2 (Homo sapiens (Human), UniProt Q92630); assay: Dundee profiling
[29] = target: TYK2 (JH2domain-pseudokinase) (Homo sapiens (Human), UniProt P29597); assay: KinomeScan; format: binding; conditions: 1 uM
[30] = target: MKK6 (Homo sapiens (Human), UniProt P52564); assay: Dundee profiling
MKK6, sequence (P52564 whole entry, species assumed): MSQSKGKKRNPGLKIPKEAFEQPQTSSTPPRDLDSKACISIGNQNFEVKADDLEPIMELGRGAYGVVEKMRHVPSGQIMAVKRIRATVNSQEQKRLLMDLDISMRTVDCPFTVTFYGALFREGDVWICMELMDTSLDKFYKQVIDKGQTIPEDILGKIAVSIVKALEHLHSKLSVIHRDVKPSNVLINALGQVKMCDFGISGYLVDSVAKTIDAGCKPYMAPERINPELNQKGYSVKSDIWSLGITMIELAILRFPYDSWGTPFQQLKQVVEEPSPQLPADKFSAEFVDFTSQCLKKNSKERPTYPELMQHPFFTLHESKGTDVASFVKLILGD

[31] = read-out: percent remaining enzymatic activity, I1, 1 μM
[32] = read-out: percent remaining enzymatic activity, I10

## CNc1nc(Nc2ccc(C(=O)N3CCOCC3)cc2OC)nc2[nH]cc(Cl)c12 [Compound 18, (4-((5-chloro-4-(methylamino)-7H-pyrrolo[2,3-d]pyrimidin-2-yl)amino)-3-methoxyphenyl)(morpholino)methanone]
[1]; [31]
  remaining activity at 1 µM: 43%
[1]; [32]
  remaining activity at 1 µM: 6%
[2]
  KinomeScan value: 99
[3]; [31]
  remaining activity at 1 µM: 96%
[3]; [32]
  remaining activity at 1 µM: 60%
[4]
  IC50: 81.3 nM
[4]; read-out: inhibition of kinase activity of the DMSO control
  inhibition at 1 µM: > 90%
[4]; [31]
  remaining activity at 1 µM: 9%
[4]; [32]
  remaining activity at 1 µM: 1%
[5]; [31]
  remaining activity at 1 µM: 110%
[5]; [32]
  remaining activity at 1 µM: 98%
[6]; [31]
  remaining activity at 1 µM: 109%
[6]; [32]
  remaining activity at 1 µM: 99%
[7]
  KinomeScan value: 96
[8]
  KinomeScan value: 82
[9]; [31]
  remaining activity at 1 µM: 110%
[9]; [32]
  remaining activity at 1 µM: 95%
[10]
  KinomeScan value: 98
[11]; [31]
  remaining activity at 1 µM: 98%
[11]; [32]
  remaining activity at 1 µM: 93%
[12]; I10
  percent remaining enzymatic activity: 6%
[12]; read-out: percent remaining enzymatic activity
  remaining activity at 1 µM: 38%
[13]; [31]
  remaining activity at 1 µM: 95%
[13]; [32]
  remaining activity at 1 µM: 82%
[14]
  KinomeScan value: 93
[15]; [31]
  remaining activity at 1 µM: 101%
[15]; [32]
  remaining activity at 1 µM: 105%
[16]; [31]
  remaining activity at 1 µM: 97%
[16]; [32]
  remaining activity at 1 µM: 103%
[17]; [31]
  remaining activity at 1 µM: 86%
[17]; [32]
  remaining activity at 1 µM: 40%
[18]; [31]
  remaining activity at 1 µM: 104%
[18]; [32]
  remaining activity at 1 µM: 101%
[19]; [31]
  remaining activity at 1 µM: 91%
[19]; [32]
  remaining activity at 1 µM: 56%
[20]; [31]
  remaining activity at 1 µM: 107%
[20]; [32]
  remaining activity at 1 µM: 68%
[21]; I1, 1 μM
  percent remaining enzymatic activity: 112%
[21]; I10
  percent remaining enzymatic activity: 103%
[22]; [31]
  remaining activity at 1 µM: 69%
[22]; [32]
  remaining activity at 1 µM: 12%
[23]
  KinomeScan value: 100
[24]; Brain, i.v., 2 mg/kg
  AUClast: 239.31 ng·h/mL
[24]; Plasma, i.v., 2 mg/kg
  AUClast: 532.67 ng·h/mL
  T1/2: 39.6 min
[24]; Plasma, p.o., 10 mg/kg
  AUClast: 3094.58 ng·h/mL
[24]; mouse, brain/plasma, iv, 2 mg/kg i.v., from AUClast, read-out: brain/plasma concentration ratio
  Kp: 0.45
[24]; mouse, iv, Brain, 2 mg/kg
  AUC(0-inf): 246 ng·h/mL
  AUC(0-t): 239 ng·h/mL
  clearance: 135 mL/min/kg
  half-life: 13.8 min
  C0: 1340 ng/mL
[24]; mouse, iv, Brain, i.v., 2 mg/kg
  Vd: 1.7 L/kg
[24]; mouse, iv, Plasma, 2 mg/kg
  AUC(0-inf): 536 ng·h/mL
  AUC(0-t): 533 ng·h/mL
  clearance: 62.2 mL/min/kg
  half-life: 39.6 min
  C0: 1600 ng/mL
[24]; mouse, iv, Plasma, i.v., 2 mg/kg
  Vd: 1.73 L/kg
[24]; mouse, oral, Plasma, 10 mg/kg p.o. vs 2 mg/kg i.v., from AUClast, read-out: % F (oral bioavailability)
  bioavailability: 116%
[24]; mouse, po, Brain, 10 mg/kg
  AUC(0-inf): 762 ng·h/mL
  AUC(0-t): 688 ng·h/mL
  Cmax: 247 ng/mL
  Tmax: 60 min
[24]; mouse, po, Plasma, 10 mg/kg
  AUC(0-inf): 3870 ng·h/mL
  AUC(0-t): 3090 ng·h/mL
  Cmax: 803 ng/mL
  Tmax: 60 min
[25]; [31]
  remaining activity at 1 µM: 95%
[25]; [32]
  remaining activity at 1 µM: 68%
[26]; [31]
  remaining activity at 1 µM: 102%
[26]; [32]
  remaining activity at 1 µM: 100%
[27]
  KinomeScan value: 100
[28]; [31]
  remaining activity at 1 µM: 67%
[28]; [32]
  remaining activity at 1 µM: 18%
[29]
  KinomeScan value: 100
[30]; [31]
  remaining activity at 1 µM: 37%
[30]; [32]
  remaining activity at 1 µM: 11%
